Molecules are shown by their SMILES. Counter-ions that a name gives are not always drawn. Where only a bound is given, the exact number is not on record here.

Assay [1] has as its system P. aeruginosa strain PAO1. Briefly: Static biofilm inhibition assay (crystal violet), PAO1. Format: cell-based, Pseudomonas aeruginosa. The settings on record: for inhibition at 500 µM / IC50: Pseudomonas aeruginosa, PAO1; for IC50: inhibition of biofilm formation, crystal violet, 24 hours. As for the experimental part:
Each compound was assayed for the ability to inhibit the formation of P. aeruginosa biofilms. […] We employed a standard crystal violet reporter assay to assess for the formation of biofilms. Briefly, P. aeruginosa strain PAO1 was allowed to form biofilms in a multi-well plate in the absence or presence of our compounds. Planktonic (or free growing) bacteria were then removed, wells washed vigorously, and crystal violet added. Crystal violet stains the remaining bacteria which, following ethanol solubilization, can be quantitated by spectrophotometry (A540).
(§1) An overnight culture of the bacterial strain being screened against was subcultured at an OD600 of 0.1 into the media used (listed below with strain) and then pipetted into test tubes along with a predetermined concentration of our compound of interest. Test tubes were then poured into tilted Petri dishes and 100 μL of media, strain and compound were then transferred into 96-well PVC microtiter plates. These microtiter plates were then covered, wrapped in Saran™ Wrap polyethylene film (S.C. Johnson, Racine, Wis.) and allowed to incubate at 37° C. for 24 hours. After that time, the medium was discarded and the plates were thoroughly washed with water. The remaining biofilm that was formed during incubation was stained with 100 μL of a 0.1% crystal violet solution and allowed to incubate at room temperature for 30 minutes. After 30 minutes, the crystal violet was discarded and washed thoroughly again with water. The remaining crystal violet that had stained the biofilm in the inside walls of the 96-well PVC plates was solubilized with 200 μL of 95% ethanol. The quantification of biofilm formation was accomplished by transferring 125 μL of the ethanol solution into a polystyrene microtiter dish, which was read by spectrophotometry (A540). After the background has been subtracted from each row, a percent inhibition can be calculated by dividing the amount of crystal violet in wells that contained compound by the amount of crystal violet in wells that contained bacteria only. Each concentration reported during the course of this study was repeated two to five times with each of those biofilm inhibition assays being done in 6 replicates each.
(§2) An overnight culture of the wild type strain was subcultured at an OD600 of 0.10 into LBNS along with a predetermined concentration of the small molecule to be tested for biofilm inhibition. Samples were then aliquoted (100 μL) into the wells of a 96-well PVC microtiter plate. The microtiter dishes were covered and sealed before incubation under stationary conditions at 37° C. for 24 hours. After that time, the medium was discarded and the plates thoroughly washed with water. The wells were then inoculated with a 0.1% aqueous solution of crystal violet (100 μL) and allowed to stand at ambient temperature for 30 minutes. Following another thorough washing with water the remaining stain was solubilized with 200 μL of 95% ethanol. Biofilm inhibition was quantitated by measuring the OD540 for each well by transferring 125 μL of the ethanol solution into a fresh polystyrene microtiter dish for analysis.
(§3) To examine each compound's ability to inhibit the formation of Pseudomonas aeruginosa biofilms, PAO1 and PA14 were employed as the target bacterial strains using a crystal violet reporter assay. G. A. O'Toole, R. Kolter, Mol. Microbiol. 1998, 28, 449. All compounds were initially screened at 500 μM for anti-biofilm activity.
An overnight culture of the wild type strain was subcultured at an OD600 of 0.10 into LBNS along with a predetermined concentration of the small molecule to be tested for biofilm inhibition. Samples were then aliquoted (100 μL) into the wells of a 96-well PVC microtiter plate. The microtiter dishes were covered and sealed before incubation under stationary conditions at 37° C. for 24 hours, After that time, the medium was discarded and the plates thoroughly washed with water. […]

The next assay deals with P. aeruginosa PA14. Kind of assay: Static biofilm inhibition assay (crystal violet), PA14. Format: cell-based, Pseudomonas aeruginosa. Particulars: for inhibition at 500 µM / IC50: Pseudomonas aeruginosa; for inhibition at 500 µM: PA14, 24 h; for IC50: PA14, inhibition of biofilm formation, crystal violet, 24 hours. How it is done:
as §1, §2, §3
as §2, with “for 24 hours, After that” for “for 24 hours. After that”, “violet (100 pt) and allowed” for “violet (100 μL) and allowed”

With `O=C(NCCc1c[nH]cn1)c1cc(Cl)c(Cl)[nH]1` [Compound 37, 4,5-dichloro-1H-pyrrole-2-carboxylic acid [2-(1H-imidazol-4-yl)-ethyl]-amide hydrochloride], the inhibition at 500 µM in assay [1] turned out to be 33%; with P. aeruginosa PA14, 38%.

As for `CCCCCCNC(=O)CCCc1c[nH]c(N)n1` [Compound 9, 4-(2-amino-1H-imidazol-4-yl)-N-hexyl-butyramide hydrochloride], the IC50 came to 32.7 ± 6.5 µM in assay [1] and 39.9 ± 13 µM with P. aeruginosa PA14.

`O=C(NCCc1c[nH]cn1)c1cc(Br)c(Br)[nH]1` [Compound 36, 4,5-dibromo-1H-pyrrole-2-carboxylic acid [2-(1H-imidazol-4-yl)-ethyl]-amide hydrochloride]: the inhibition at 500 µM in assay [1] came to 73%; with P. aeruginosa PA14, 69%.

In assay [1], `Cl.Cn1cccc1C(=O)NCCCc1c[nH]c(N)n1` [Compound 21, 1-methyl-pyrrole-2-carboxylic acid [3-(2-amino-1H-imidazol-4-yl)-propyl]-amide hydrochloride] gave an inhibition at 500 µM of 25%. Further, in the assay on P. aeruginosa PA14 (screen at 500 μM), the “inhibition of PA14 biofilm formation (in words)” value is “inactive”.

As to `Cn1cc(Br)cc1C(=O)NCCCc1c[nH]c(=S)[nH]1` [Compound 48, 4-bromo-1-methyl-pyrrole-2-carboxylic acid [3-(2-thioxo-2,3-dihydro-1H-imidazol-4-yl)-propyl]-amide], the inhibition at 500 µM stood at 41% in assay [1] and 57% in the assay with P. aeruginosa PA14.

Consider `O=C(NCCCc1c[nH]c(=S)[nH]1)c1ccc[nH]1` [Compound 43, 1H-pyrrole-2-carboxylic acid [3-(2-thioxo-2,3-dihydro-1H-imidazol-4-yl)-propyl]-amide], for which the inhibition at 500 µM was determined as 39% in assay [1] and 33% in the assay on P. aeruginosa PA14.

With `O=C(NCCCc1c[nH]c(=S)[nH]1)c1cc(Cl)c(Cl)[nH]1` [Compound 46, 4,5-dichloro-1H-pyrrole-2-carboxylic acid [3-(2-thioxo-2,3-dihydro-1H-imidazol-4-yl)-propyl]-amide], the inhibition at 500 µM in assay [1] was 41%; in the assay on P. aeruginosa PA14, 38%.

Take `Nc1nc(CCCNC(=O)c2cc(Br)c(Br)[nH]2)c[nH]1` [Compound 19, 4,5-dibromo-1H-pyrrole-2-carboxylic acid [3-(2-amino-1H-imidazol-4-yl)-propyl]-amide hydrochloride]: the inhibition at 500 µM (in assay [1]; in the assay on P. aeruginosa PA14) was less than 70% in each case.

Consider `O=C(NCCCc1c[nH]c(=S)[nH]1)c1cc(Br)c[nH]1` [Compound 44, 4-bromo-1H-pyrrole-2-carboxylic acid [3-(2-thioxo-2,3-dihydro-1H-imidazol-4-yl)-propyl]-amide], for which the inhibition at 500 µM in assay [1] amounted to 28%; in the assay on P. aeruginosa PA14 it was 14%.

Turning to `CCCCCCCCNC(=O)CCCc1c[nH]c(N)n1` [Compound 10, 4-(2-amino-1H-imidazol-4-yl)-N-octyl-butyramide hydrochloride], the results for the IC50 (in assay [1]; in the assay with P. aeruginosa PA14) were 18.4 ± 2.3 µM and 13.3 ± 1.8 µM, respectively.

As to `O=C(NCCc1c[nH]cn1)c1cc(Br)c[nH]1` [Compound 35, 4-bromo-1H-pyrrole-2-carboxylic acid [2-(1H-imidazol-4-yl)-ethyl]-amide hydrochloride], the inhibition at 500 µM in assay [1] was found to be 46%; in the assay on P. aeruginosa PA14 it was 43%.

`Cn1cc(Br)cc1C(=O)NCCc1c[nH]cn1` [Compound 39, 4-bromo-1-methyl-pyrrole-2-carboxylic acid [2-(1H-imidazol-4-yl)-ethyl]amide hydrochloride]: the inhibition at 500 µM in assay [1] is 37%; in the assay on P. aeruginosa PA14 it was 21%.

Consider `Cn1c(C(=O)NCCCc2c[nH]c(=S)[nH]2)cc(Br)c1Br` [Compound 49, 4,5-dibromo-1-methyl-pyrrole-2-carboxylic acid [3-(2-thioxo-2,3-dihydro-1H-imidazol-4-yl)-propyl]-amide], for which the inhibition at 500 µM was 46% in assay [1] and 38% with P. aeruginosa PA14.

Consider `Nc1nc(CCCNC(=O)c2cc(Cl)c(Cl)[nH]2)c[nH]1` [Compound 20, 4,5-dichloro-1H-pyrrole-2-carboxylic acid [3-(2-amino-1H-imidazol-4-yl)-propyl]-amide hydrochloride], for which the inhibition at 500 µM in assay [1] is 37%; with P. aeruginosa PA14, 48%.

Regarding `Cn1c(C(=O)NCCC=C2NC(N)=NC2=O)cc(Br)c1Br` [Compound 32, 4,5-dibromo-1-methyl-pyrrole-2-carboxylic acid [3-(2-amino-5-oxo-3,5-dihydro-imidazol-4-ylidene)-propyl]-amide hydrochloride, reference compound], the inhibition at 500 µM (in assay [1]; in the assay with P. aeruginosa PA14) was less than 20% throughout.

`Cn1cccc1C(=O)NCCCc1c[nH]c(=S)[nH]1` [Compound 47, 1-methyl-pyrrole-2-carboxylic acid [3-(2-thioxo-2,3-dihydro-1H-imidazol-4-yl)-propyl]-amide]: the inhibition at 500 µM was found to be 27% in assay [1] and 36% in the assay on P. aeruginosa PA14.

Turning to `Cl.Nc1nc(CCCNC(=O)c2ccc[nH]2)c[nH]1` [Compound 17, 1H-pyrrole-2-carboxylic acid [3-(2-amino-1H-imidazol-4-yl)-propyl]-amide hydrochloride], in assay [1] (500 μM, hydrochloride), the “% Biofilm Inhibition at 500 μM vs PAO1” value is given as less than 10%. Also, the inhibition at 500 µM is less than 10% in assay [1] and 16% with P. aeruginosa PA14.

With `Cn1cccc1C(=O)NCCc1c[nH]cn1` [Compound 38, 1-methyl-pyrrole-2-carboxylic acid [2-(1H-imidazol-4-yl)-ethyl]amide hydrochloride], the inhibition at 500 µM in assay [1] was determined as 29%; in the assay on P. aeruginosa PA14 it was 34%.

Turning to `O=C(NCCCc1c[nH]c(=S)[nH]1)c1cc(Br)c(Br)[nH]1` [Compound 45, 4,5-dibromo-1H-pyrrole-2-carboxylic acid [3-(2-thioxo-2,3-dihydro-1H-imidazol-4-yl)-propyl]-amide], the values for the inhibition at 500 µM (in assay [1]; with P. aeruginosa PA14) were 61% and 56%, respectively.

As to `O=C(NCCc1c[nH]cn1)c1ccc[nH]1` [Compound 34, 1H-pyrrole-2-carboxylic acid [2-(1H-imidazol-4-yl)-ethyl]amide hydrochloride], the inhibition at 500 µM worked out at 42% in assay [1] and 31% with P. aeruginosa PA14.

For `Nc1nc(CCCNC(=O)c2cc(Br)c[nH]2)c[nH]1` [Compound 18, 4-bromo-1H-pyrrole-2-carboxylic acid [3-(2-amino-1H-imidazol-4-yl)-propyl]-amide hydrochloride], the inhibition at 500 µM in assay [1] amounted to 74%; in the assay with P. aeruginosa PA14, 86%. The IC50 in assay [1] worked out at 323 ± 30 µM; with P. aeruginosa PA14, 266 ± 23 µM.

Regarding `Cn1cc(Br)cc1C(=O)NCCCc1c[nH]c(N)n1` [Compound 22, 4-bromo-1-methyl-pyrrole-2-carboxylic acid [3-(2-amino-1H-imidazol-4-yl)-propyl]-amide hydrochloride], in assay [1], the inhibition at 500 µM is 88% and it took 348 ± 13 µM to reach half-maximal inhibition (IC50). In the assay on P. aeruginosa PA14, this compound came in with an inhibition at 500 µM of 83% and an IC50 of 309 ± 16 µM.

The values are drawn from patent publication US9084423B2, “Inhibition of bacterial biofilms with imidazole derivatives” (North Carolina State University, priority 2007, dated 2015).
